The source made the active and inactive calls.
Legend:
Estrogen receptor = target: T1, Estrogen receptor (Homo sapiens, UniProt P03372);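 also: potency for inhibiting coactivator peptide recruitment to the receptor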
T1 sequence (P03372 whole entry): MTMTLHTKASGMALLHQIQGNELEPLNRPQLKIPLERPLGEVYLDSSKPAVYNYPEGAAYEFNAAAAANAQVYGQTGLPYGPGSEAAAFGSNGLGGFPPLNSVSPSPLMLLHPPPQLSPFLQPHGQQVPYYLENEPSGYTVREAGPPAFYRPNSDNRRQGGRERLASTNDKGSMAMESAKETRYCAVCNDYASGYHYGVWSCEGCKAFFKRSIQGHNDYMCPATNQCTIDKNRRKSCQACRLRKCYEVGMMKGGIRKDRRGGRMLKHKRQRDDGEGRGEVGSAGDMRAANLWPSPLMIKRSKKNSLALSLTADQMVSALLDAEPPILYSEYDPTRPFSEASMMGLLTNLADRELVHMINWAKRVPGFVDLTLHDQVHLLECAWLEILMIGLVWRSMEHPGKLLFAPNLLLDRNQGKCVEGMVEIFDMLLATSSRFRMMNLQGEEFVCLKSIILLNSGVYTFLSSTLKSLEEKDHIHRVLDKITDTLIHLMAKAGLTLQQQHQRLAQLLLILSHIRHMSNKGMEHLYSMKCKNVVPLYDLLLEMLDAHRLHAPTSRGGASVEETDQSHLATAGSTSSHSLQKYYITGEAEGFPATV

[1] = target: T2, Short transient receptor potential channel 4 (Mus musculus, UniProt Q9QUQ5); test: block of DAMGO-driven TRPC4 calcium entry – cell-based, HEK293 TRPC4/mu-opioid, Fluo-4 calcium, dose response (AID 434942); type: functional;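 also: potency of inhibitors blocking the TRPC4 calcium response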
T2 sequence (Q9QUQ5 whole entry): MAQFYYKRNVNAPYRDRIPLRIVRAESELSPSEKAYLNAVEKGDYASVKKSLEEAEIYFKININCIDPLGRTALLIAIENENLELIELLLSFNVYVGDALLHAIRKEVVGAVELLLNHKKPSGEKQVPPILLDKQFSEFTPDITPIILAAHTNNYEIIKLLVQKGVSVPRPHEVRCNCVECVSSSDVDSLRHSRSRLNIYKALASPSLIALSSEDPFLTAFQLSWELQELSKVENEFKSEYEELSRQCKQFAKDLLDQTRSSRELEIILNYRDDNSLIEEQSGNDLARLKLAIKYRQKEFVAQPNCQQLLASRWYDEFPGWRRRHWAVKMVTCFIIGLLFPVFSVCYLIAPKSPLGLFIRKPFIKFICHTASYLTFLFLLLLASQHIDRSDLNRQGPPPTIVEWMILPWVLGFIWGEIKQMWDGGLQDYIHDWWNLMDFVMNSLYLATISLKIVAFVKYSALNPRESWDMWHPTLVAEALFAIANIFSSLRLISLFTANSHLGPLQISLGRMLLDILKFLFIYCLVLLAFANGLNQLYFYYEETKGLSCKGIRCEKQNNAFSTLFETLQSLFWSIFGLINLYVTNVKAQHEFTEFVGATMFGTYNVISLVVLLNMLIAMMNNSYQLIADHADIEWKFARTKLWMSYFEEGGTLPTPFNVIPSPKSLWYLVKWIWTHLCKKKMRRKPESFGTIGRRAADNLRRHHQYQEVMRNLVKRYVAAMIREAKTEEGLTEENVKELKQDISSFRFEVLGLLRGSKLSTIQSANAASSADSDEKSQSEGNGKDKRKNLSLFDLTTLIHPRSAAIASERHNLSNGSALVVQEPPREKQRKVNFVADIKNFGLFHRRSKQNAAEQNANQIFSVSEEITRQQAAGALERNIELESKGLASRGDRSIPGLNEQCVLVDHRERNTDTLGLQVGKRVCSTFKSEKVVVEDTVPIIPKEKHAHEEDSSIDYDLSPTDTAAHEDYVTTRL

[2] = Trypanosoma cruzi growth suppression in host cells – NIH3T3 host cells, beta-gal luminescence, confirmation (AID 2044); type: functional, cell-based;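 also: intracellular parasites grown in NIH/3T3 mouse fibroblasts as host cells; luminescent beta-galactosidase reporter signal from transgenic T. cruzi replicating inside host cells; inhibitors lower the luminescence signal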
Cytochrome P450 2C9 = Cytochrome P450 2C9 (Homo sapiens, UniProt P11712)
[3] = NIH3T3 cell viability loss – ATP luminescence, mouse fibroblasts, counter-screen, dose response (AID 2010); type: functional, cell-based;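 also: cells exposed to compound for about 90 hours before reading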
[4] = target: T3, Corticotropin-releasing factor receptor 2/Corticotropin-releasing factor-binding protein (Homo sapiens, UniProt P24387+Q13324); test: activators of CRF receptor 2 with binding protein – uHTS hits, confirmation (AID 602473); type: functional; conditions: read-out: EC50_Mean
T3 sequence (Q13324 whole entry): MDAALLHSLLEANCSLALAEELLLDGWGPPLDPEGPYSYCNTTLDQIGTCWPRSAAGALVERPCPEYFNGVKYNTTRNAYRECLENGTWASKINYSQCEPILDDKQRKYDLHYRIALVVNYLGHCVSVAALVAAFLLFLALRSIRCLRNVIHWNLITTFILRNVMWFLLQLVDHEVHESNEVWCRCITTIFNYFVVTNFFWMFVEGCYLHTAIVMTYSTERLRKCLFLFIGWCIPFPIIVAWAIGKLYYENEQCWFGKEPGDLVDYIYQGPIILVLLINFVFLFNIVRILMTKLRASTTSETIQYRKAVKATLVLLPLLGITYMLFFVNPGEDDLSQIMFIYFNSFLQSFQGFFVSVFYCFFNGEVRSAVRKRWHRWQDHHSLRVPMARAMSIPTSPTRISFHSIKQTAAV
T3 sequence (P24387 whole entry): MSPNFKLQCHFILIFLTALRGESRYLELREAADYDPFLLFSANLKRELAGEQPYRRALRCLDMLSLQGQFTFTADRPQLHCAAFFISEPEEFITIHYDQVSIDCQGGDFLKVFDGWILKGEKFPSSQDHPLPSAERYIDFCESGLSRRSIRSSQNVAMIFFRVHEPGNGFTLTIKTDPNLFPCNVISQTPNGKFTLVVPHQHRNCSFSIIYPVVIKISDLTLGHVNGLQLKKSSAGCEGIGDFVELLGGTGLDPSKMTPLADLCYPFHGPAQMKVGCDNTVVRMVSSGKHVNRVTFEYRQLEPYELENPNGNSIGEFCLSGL

[5] = target: T3, Corticotropin-releasing factor receptor 2/Corticotropin-releasing factor-binding protein; test: Dose Response confirmation of uHTS hits for small molecule antagonists of the CRF-binding protein and CRF-R2 receptor complex.; type: functional; conditions: read-out: IC50_Mean
[6] = viability loss in THP-1 monocytes – THP-1 cells, cytotoxicity control for Vif-APOBEC3G degradation inhibitor project, dose response (AID 1117359); type: functional; conditions: THP-1
[7] = target: T4, Rac GTPase-activating protein 1 (Homo sapiens, UniProt Q9H0H5); test: blockers of MgcRacGAP-driven Rac1 GTP hydrolysis – biochemical, ADP Hunter fluorescence, primary and confirmatory, confirmation (AID 624330); type: functional
T4 sequence (Q9H0H5 whole entry): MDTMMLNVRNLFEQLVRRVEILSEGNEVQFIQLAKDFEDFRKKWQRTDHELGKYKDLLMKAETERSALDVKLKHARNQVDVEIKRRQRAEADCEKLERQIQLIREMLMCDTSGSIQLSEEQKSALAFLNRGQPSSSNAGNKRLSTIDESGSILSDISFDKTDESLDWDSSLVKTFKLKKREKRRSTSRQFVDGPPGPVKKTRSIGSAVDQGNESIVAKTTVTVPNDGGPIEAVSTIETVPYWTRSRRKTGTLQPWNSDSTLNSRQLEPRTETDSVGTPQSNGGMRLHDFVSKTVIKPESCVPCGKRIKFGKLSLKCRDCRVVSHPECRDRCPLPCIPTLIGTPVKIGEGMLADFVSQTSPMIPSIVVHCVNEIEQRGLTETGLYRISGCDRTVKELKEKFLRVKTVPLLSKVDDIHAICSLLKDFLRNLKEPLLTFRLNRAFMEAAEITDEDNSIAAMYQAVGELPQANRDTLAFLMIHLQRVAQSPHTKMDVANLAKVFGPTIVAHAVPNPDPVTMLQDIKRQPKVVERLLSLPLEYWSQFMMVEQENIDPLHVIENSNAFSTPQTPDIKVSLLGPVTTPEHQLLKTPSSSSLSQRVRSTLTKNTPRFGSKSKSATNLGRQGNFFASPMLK

[8] = target: Nucleotide-binding oligomerization domain-containing protein 2 (Homo sapiens, UniProt Q9HC29); test: inhibition of NOD2-driven NF-kB reporter – cell-based, luminescence, uHTS, HEK293 (AID 1566); type: functional
HEK293 [9] = test: inhibition of NOD1-driven NF-kB reporter – cell-based, luminescence, uHTS, primary screen (AID 1578); type: functional; conditions: Homo sapiens
HEK293 [10] = test: NOD2 signaling inhibitors in MDP-stimulated cells, cell-based, uHTS, luminescence (AID 2001); type: functional; conditions: Homo sapiens
HEK293 [11] = test: cells; type: functional, cell-based; conditions: Homo sapiens
HEK293 [12] = test: cells; type: functional, cell-based; conditions: Homo sapiens; remark: listed apart in the source
HEK293 [13] = test: cells; type: functional, cell-based; conditions: Homo sapiens; remark: listed apart in the source

Nucleotide-binding oligomerization domain-containing protein 2, sequence (Q9HC29 whole entry, the tested form may be a part): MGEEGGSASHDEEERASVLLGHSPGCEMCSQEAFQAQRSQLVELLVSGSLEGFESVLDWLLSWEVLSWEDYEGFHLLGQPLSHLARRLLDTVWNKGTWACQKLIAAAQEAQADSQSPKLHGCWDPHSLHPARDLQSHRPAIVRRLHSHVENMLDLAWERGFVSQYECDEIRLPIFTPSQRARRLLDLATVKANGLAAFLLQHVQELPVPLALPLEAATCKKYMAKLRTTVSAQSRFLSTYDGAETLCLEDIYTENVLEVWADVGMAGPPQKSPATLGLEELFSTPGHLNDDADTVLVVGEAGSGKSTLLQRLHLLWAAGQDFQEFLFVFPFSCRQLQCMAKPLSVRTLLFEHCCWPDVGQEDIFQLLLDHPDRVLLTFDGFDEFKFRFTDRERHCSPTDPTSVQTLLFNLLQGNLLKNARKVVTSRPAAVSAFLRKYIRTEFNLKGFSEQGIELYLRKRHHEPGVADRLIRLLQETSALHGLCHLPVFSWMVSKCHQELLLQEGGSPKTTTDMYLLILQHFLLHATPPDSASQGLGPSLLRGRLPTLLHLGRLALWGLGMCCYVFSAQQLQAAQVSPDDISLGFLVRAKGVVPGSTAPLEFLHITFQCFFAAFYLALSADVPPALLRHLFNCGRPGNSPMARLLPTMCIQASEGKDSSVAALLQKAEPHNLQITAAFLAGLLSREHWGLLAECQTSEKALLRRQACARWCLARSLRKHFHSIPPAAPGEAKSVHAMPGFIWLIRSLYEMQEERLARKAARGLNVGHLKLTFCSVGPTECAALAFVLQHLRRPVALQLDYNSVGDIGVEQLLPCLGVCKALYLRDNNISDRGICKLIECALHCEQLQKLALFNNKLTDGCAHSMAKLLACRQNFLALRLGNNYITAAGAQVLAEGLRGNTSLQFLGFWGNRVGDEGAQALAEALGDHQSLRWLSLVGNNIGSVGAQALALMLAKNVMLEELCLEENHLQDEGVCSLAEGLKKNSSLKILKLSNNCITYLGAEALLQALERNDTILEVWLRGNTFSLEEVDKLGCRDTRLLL
Cytochrome P450 2C9, sequence (P11712 whole entry): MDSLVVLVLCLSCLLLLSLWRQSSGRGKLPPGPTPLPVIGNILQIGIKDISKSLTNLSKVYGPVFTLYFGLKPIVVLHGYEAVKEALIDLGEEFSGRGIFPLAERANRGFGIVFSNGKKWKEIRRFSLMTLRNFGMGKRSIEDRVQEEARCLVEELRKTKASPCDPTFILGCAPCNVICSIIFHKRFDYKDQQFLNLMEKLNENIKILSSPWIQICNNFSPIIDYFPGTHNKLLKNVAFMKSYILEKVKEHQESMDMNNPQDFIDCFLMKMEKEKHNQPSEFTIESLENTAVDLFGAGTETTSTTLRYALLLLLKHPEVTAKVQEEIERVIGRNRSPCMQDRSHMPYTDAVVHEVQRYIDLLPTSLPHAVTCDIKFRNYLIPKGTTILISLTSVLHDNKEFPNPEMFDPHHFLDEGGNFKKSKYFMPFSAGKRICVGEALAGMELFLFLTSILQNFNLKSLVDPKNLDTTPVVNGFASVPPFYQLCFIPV

## CS(=O)(=O)N(CC(=O)NCc1ccco1)c1ccc2c(c1)OCO2
Estrogen receptor
  IC50: 40.1 µM (not active)

## CCOc1cc(/C=C2\C(=N)N3N=CSC3=NC2=O)ccc1OS(=O)(=O)c1ccccc1
[1]
  EC50: 4.73 µM (active)

## Cc1ccc(C)c(S(=O)(=O)NCc2ccc(C(=O)N3CCC(Cc4ccccc4)CC3)cc2)c1
[2]
  EC50: 2.66 µM (active)
Cytochrome P450 2C9
  AC50: inconclusive
[3]
  EC50: > 60 µM (not active)

## CCOC(=O)c1c(C)[nH]c(C(=O)OCC(=O)Nc2sc(C(=O)N(C)C)c(C)c2C(=O)OCC)c1C
[2]
  EC50: 0.36 µM (active)
[4]
  EC50: > 53 µM (inactive)
[5]
  IC50: > 47.1 µM (inactive)
[3]
  EC50: > 60 µM (not active)
[6]
  CC50: > 40 µM (active)

## Clc1ccc(Nc2nc(-c3ccncc3)cs2)cc1
Estrogen receptor
  IC50: 18.2 µM (active)
[2]
  EC50: 0.329 µM (active)
[3]
  EC50: 4 µM (active)

## O=c1[nH]c2cc3c(cc2cc1CN(Cc1cccs1)Cc1nnnn1Cc1ccco1)OCCO3
Estrogen receptor
  IC50: > 50 µM (not active)

## c1ccc2[nH]c(CCCCc3nc4ccccc4[nH]3)nc2c1
[1]
  EC50: 2.37 µM (active)

## C=CCc1ccc(OCCOCCNCCCC)c(OC)c1
[7]
  IC50: 132 µM (active)
[6]
  CC50: > 40 µM (active)

## Cc1cc(C)cc(OCC(=O)Nc2nc3ccc([N+](=O)[O-])cc3s2)c1
[8]
  EC50: 7.65 µM (active)
HEK293 [9]
  EC50: 4.56 µM (active)
HEK293 [10]
  IC50: 8.1 µM (active)
HEK293 [11]
  IC50: > 20 µM (inactive)
HEK293 [12]
  IC50: 1.83 µM (active)
HEK293 [13]
  IC50: > 20 µM (inactive)

## COc1ccc(C)cc1NC(=O)CSc1ccc(-c2sc(C)nc2C)nn1
[8]
  EC50: 4.63 µM (active)
HEK293 [9]
  EC50: 9.47 µM (active)
HEK293 [10]
  IC50: 10.7 µM (inactive)
HEK293 [11]
  IC50: > 20 µM (inactive)
HEK293 [12]
  IC50: 14.1 µM (active)
HEK293 [13]
  IC50: > 20 µM (inactive)

Source: ChEMBL document CHEMBL1201862, “PubChem BioAssay data set” (2004)
